According to PubChem BioAssay (NCI):
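Compound exposure: 48 hours, 5 concentrations, 96-well plates. Here, GI50 denotes the concentration required for 50% inhibition of growth. TGI marks complete inhibition of growth.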

Columns and labels:
Assay in all cases: NCI-60 cell line screen, 48 h
OVCAR-3 ovarian = tested on: OVCAR-3 ovarian
HCT-15 colon = tested on: HCT-15 colon
OVCAR-8 ovarian = tested on: OVCAR-8 ovarian
TK-10 renal = tested on: TK-10 renal
HOP-92 NSCLC = tested on: HOP-92 NSCLC
KM12 colon = tested on: KM12 colon
BT-549 breast = tested on: BT-549 breast
M14 melanoma = tested on: M14 melanoma
SR leukemia = tested on: SR leukemia
SK-MEL-28 melanoma = tested on: SK-MEL-28 melanoma
OVCAR-4 ovarian = tested on: OVCAR-4 ovarian
MDA-MB-231 breast = tested on: MDA-MB-231 breast
EKVX NSCLC = tested on: EKVX NSCLC
NCI-H226 lung = tested on: NCI-H226 lung
SNB-19 CNS = tested on: SNB-19 CNS
MCF7 breast = tested on: MCF7 breast
SW-620 colon = tested on: SW-620 colon
HS 578T breast = tested on: HS 578T breast
UACC-62 melanoma = tested on: UACC-62 melanoma
HL-60(TB) leukemia = tested on: HL-60(TB) leukemia
OVCAR-5 ovarian = tested on: OVCAR-5 ovarian
CAKI-1 renal = tested on: CAKI-1 renal
MALME-3M melanoma = tested on: MALME-3M melanoma
SK-MEL-5 melanoma = tested on: SK-MEL-5 melanoma
HCT-116 colon = tested on: HCT-116 colon
SF-539 CNS = tested on: SF-539 CNS
CCRF-CEM leukemia = tested on: CCRF-CEM leukemia
RPMI-8226 leukemia = tested on: RPMI-8226 leukemia
UACC-257 melanoma = tested on: UACC-257 melanoma
HT29 colon = tested on: HT29 colon
NCI-H23 lung = tested on: NCI-H23 lung
SF-295 CNS = tested on: SF-295 CNS
A549 NSCLC = tested on: A549 NSCLC
LOX IMVI melanoma = tested on: LOX IMVI melanoma
HOP-62 NSCLC = tested on: HOP-62 NSCLC
RXF 393 renal = tested on: RXF 393 renal
SN12C renal = tested on: SN12C renal
SF-268 CNS = tested on: SF-268 CNS
PC-3 prostate = tested on: PC-3 prostate
786-0 renal = tested on: 786-0 renal
U251 CNS = tested on: U251 CNS
COLO 205 colon = tested on: COLO 205 colon
HCC-2998 colon = tested on: HCC-2998 colon
SK-MEL-2 melanoma = tested on: SK-MEL-2 melanoma
ACHN renal = tested on: ACHN renal
UO-31 renal = tested on: UO-31 renal
A498 renal = tested on: A498 renal
NCI-H522 lung = tested on: NCI-H522 lung
NCI/ADR-RES ovarian = tested on: NCI/ADR-RES ovarian
MDA-MB-435 = tested on: MDA-MB-435
DU-145 prostate = tested on: DU-145 prostate
SK-OV-3 ovarian = tested on: SK-OV-3 ovarian
T-47D breast = tested on: T-47D breast
MOLT-4 leukemia = tested on: MOLT-4 leukemia
NCI-H460 lung = tested on: NCI-H460 lung
K-562 leukemia = tested on: K-562 leukemia

CCOc1ccc2c(c1)C(=O)c1c-2n(CCCN)c(=O)c2cc([N+](=O)[O-])ccc12
GI50 (OVCAR-3 ovarian): 448 nM
TGI (OVCAR-3 ovarian): 1750 nM
GI50 (HCT-15 colon): 209 nM
TGI (HCT-15 colon): 1240 nM
GI50 (OVCAR-8 ovarian): 16.8 nM
TGI (OVCAR-8 ovarian): 147 nM
GI50 (TK-10 renal): 1270 nM
TGI (TK-10 renal): 2780 nM
GI50 (HOP-92 NSCLC): 96.9 nM
TGI (HOP-92 NSCLC): 1910 nM
GI50 (KM12 colon): 532 nM
TGI (KM12 colon): 2100 nM
GI50 (BT-549 breast): 473 nM
TGI (BT-549 breast): 1620 nM
GI50 (M14 melanoma): 34.3 nM
TGI (M14 melanoma): 1190 nM
GI50 (SR leukemia): < 10 nM
TGI (SR leukemia): 2170 nM
GI50 (SK-MEL-28 melanoma): 1370 nM
TGI (SK-MEL-28 melanoma): 2890 nM
GI50 (OVCAR-4 ovarian): 527 nM
TGI (OVCAR-4 ovarian): 2180 nM
GI50 (MDA-MB-231 breast): 1810 nM
TGI (MDA-MB-231 breast): 3430 nM
GI50 (EKVX NSCLC): 1190 nM
TGI (EKVX NSCLC): 2570 nM
GI50 (NCI-H226 lung): 1220 nM
TGI (NCI-H226 lung): 3260 nM
GI50 (SNB-19 CNS): 34.6 nM
TGI (SNB-19 CNS): 1480 nM
GI50 (MCF7 breast): < 10 nM
TGI (MCF7 breast): 271 nM
GI50 (SW-620 colon): 51.6 nM
TGI (SW-620 colon): 1360 nM
GI50 (HS 578T breast): 1930 nM
TGI (HS 578T breast): 4040 nM
GI50 (UACC-62 melanoma): 76.8 nM
TGI (UACC-62 melanoma): 1820 nM
GI50 (HL-60(TB) leukemia): 314 nM
TGI (HL-60(TB) leukemia): 2400 nM
GI50 (OVCAR-5 ovarian): 324 nM
TGI (OVCAR-5 ovarian): 1820 nM
GI50 (CAKI-1 renal): 11.2 nM
TGI (CAKI-1 renal): 1140 nM
GI50 (MALME-3M melanoma): 574 nM
TGI (MALME-3M melanoma): 2370 nM
GI50 (SK-MEL-5 melanoma): 77.1 nM
TGI (SK-MEL-5 melanoma): 417 nM
GI50 (HCT-116 colon): 63.8 nM
TGI (HCT-116 colon): 543 nM
GI50 (SF-539 CNS): 51.7 nM
TGI (SF-539 CNS): 209 nM
GI50 (CCRF-CEM leukemia): < 10 nM
TGI (CCRF-CEM leukemia): 20.8 nM
GI50 (RPMI-8226 leukemia): 44.3 nM
TGI (RPMI-8226 leukemia): 302 nM
GI50 (UACC-257 melanoma): 1190 nM
TGI (UACC-257 melanoma): 2440 nM
GI50 (HT29 colon): 126 nM
TGI (HT29 colon): 1120 nM
GI50 (NCI-H23 lung): 42.5 nM
TGI (NCI-H23 lung): 473 nM
GI50 (SF-295 CNS): 14.6 nM
TGI (SF-295 CNS): 1190 nM
GI50 (A549 NSCLC): 137 nM
TGI (A549 NSCLC): 1130 nM
GI50 (LOX IMVI melanoma): 14.4 nM
TGI (LOX IMVI melanoma): 1150 nM
GI50 (HOP-62 NSCLC): < 10.8 nM
TGI (HOP-62 NSCLC): 1220 nM
GI50 (RXF 393 renal): 499 nM
TGI (RXF 393 renal): 1960 nM
GI50 (SN12C renal): 66.7 nM
TGI (SN12C renal): 1930 nM
GI50 (SF-268 CNS): 11.5 nM
TGI (SF-268 CNS): 1060 nM
GI50 (PC-3 prostate): 297 nM
TGI (PC-3 prostate): 2140 nM
GI50 (786-0 renal): 29.1 nM
TGI (786-0 renal): 214 nM
GI50 (U251 CNS): 10.3 nM
TGI (U251 CNS): 1220 nM
GI50 (COLO 205 colon): 361 nM
TGI (COLO 205 colon): 2110 nM
GI50 (HCC-2998 colon): 183 nM
TGI (HCC-2998 colon): 1400 nM
GI50 (SK-MEL-2 melanoma): 1530 nM
TGI (SK-MEL-2 melanoma): 3270 nM
GI50 (ACHN renal): 10.1 nM
TGI (ACHN renal): 1170 nM
GI50 (UO-31 renal): < 10 nM
TGI (UO-31 renal): 205 nM
GI50 (A498 renal): 679 nM
TGI (A498 renal): 2060 nM
GI50 (NCI-H522 lung): 13.4 nM
TGI (NCI-H522 lung): 1520 nM
GI50 (NCI/ADR-RES ovarian): 55.8 nM
TGI (NCI/ADR-RES ovarian): 1820 nM
GI50 (MDA-MB-435): 294 nM
TGI (MDA-MB-435): 1950 nM
GI50 (DU-145 prostate): < 10.7 nM
TGI (DU-145 prostate): 213 nM

CC(C)(C)[Si](C)(C)OCCC1CC2(S(=O)(=O)C3=CC=C=C=C3)ON1CC2S(=O)(=O)c1ccccc1 (stereo not given)
TGI (SK-OV-3 ovarian): > 100000 nM
TGI (U251 CNS): > 100000 nM

COc1cc(/C=C2\CCCC3=C2N=C2SC(C)=CN2C3c2cc(OC)c(OC)c(OC)c2)cc(OC)c1OC (stereo not given)
GI50 (OVCAR-8 ovarian): 385 nM
TGI (OVCAR-8 ovarian): 3090 nM
GI50 (HOP-92 NSCLC): 1460 nM
TGI (HOP-92 NSCLC): 4270 nM
GI50 (SR leukemia): 399 nM
TGI (SR leukemia): 2010 nM
GI50 (T-47D breast): 3160 nM
TGI (T-47D breast): > 100000 nM
GI50 (MDA-MB-231 breast): 2880 nM
TGI (MDA-MB-231 breast): > 100000 nM
GI50 (MCF7 breast): 2980 nM
TGI (MCF7 breast): > 100000 nM
GI50 (CAKI-1 renal): 2550 nM
TGI (CAKI-1 renal): > 100000 nM
GI50 (HCT-116 colon): 692 nM
TGI (HCT-116 colon): 2010 nM
GI50 (SF-539 CNS): 3090 nM
TGI (SF-539 CNS): > 100000 nM
GI50 (CCRF-CEM leukemia): 615 nM
TGI (CCRF-CEM leukemia): 4140 nM
GI50 (RPMI-8226 leukemia): 391 nM
TGI (RPMI-8226 leukemia): 2110 nM
GI50 (HOP-62 NSCLC): 1890 nM
TGI (HOP-62 NSCLC): > 100000 nM
GI50 (SN12C renal): 2440 nM
TGI (SN12C renal): > 100000 nM
GI50 (PC-3 prostate): 2190 nM
TGI (PC-3 prostate): > 100000 nM
GI50 (MOLT-4 leukemia): 1770 nM
TGI (MOLT-4 leukemia): 6430 nM
GI50 (NCI/ADR-RES ovarian): 334 nM
TGI (NCI/ADR-RES ovarian): > 100000 nM
GI50 (DU-145 prostate): 2760 nM
TGI (DU-145 prostate): > 100000 nM

Cc1nc2ccccc2c(/C=C/c2ccccc2)c1C(=O)/C=C/c1ccc(Cl)cc1
GI50 (OVCAR-3 ovarian): 1480 nM
TGI (OVCAR-3 ovarian): 2910 nM
GI50 (NCI-H460 lung): 1510 nM
TGI (NCI-H460 lung): 3290 nM
GI50 (KM12 colon): 1860 nM
TGI (KM12 colon): 4780 nM
GI50 (SR leukemia): 540 nM
TGI (SR leukemia): 3750 nM
GI50 (SK-OV-3 ovarian): > 100000 nM
TGI (SK-OV-3 ovarian): > 100000 nM
GI50 (OVCAR-4 ovarian): 2360 nM
TGI (OVCAR-4 ovarian): > 100000 nM
GI50 (MDA-MB-231 breast): 1460 nM
TGI (MDA-MB-231 breast): 4000 nM
GI50 (SW-620 colon): 1710 nM
TGI (SW-620 colon): 5720 nM
GI50 (UACC-62 melanoma): 1500 nM
TGI (UACC-62 melanoma): 3250 nM
GI50 (HL-60(TB) leukemia): 871 nM
TGI (HL-60(TB) leukemia): 3120 nM
GI50 (SK-MEL-5 melanoma): 1620 nM
TGI (SK-MEL-5 melanoma): 3040 nM
GI50 (HCT-116 colon): 485 nM
TGI (HCT-116 colon): 1810 nM
GI50 (CCRF-CEM leukemia): 481 nM
TGI (CCRF-CEM leukemia): 5240 nM
GI50 (RPMI-8226 leukemia): 784 nM
TGI (RPMI-8226 leukemia): 3580 nM
GI50 (HT29 colon): 900 nM
TGI (HT29 colon): 6360 nM
GI50 (LOX IMVI melanoma): 1230 nM
TGI (LOX IMVI melanoma): 2490 nM
GI50 (RXF 393 renal): 1280 nM
TGI (RXF 393 renal): 2640 nM
GI50 (SN12C renal): 1710 nM
TGI (SN12C renal): 4390 nM
GI50 (SF-268 CNS): 3150 nM
TGI (SF-268 CNS): > 100000 nM
GI50 (786-0 renal): 1580 nM
TGI (786-0 renal): 2990 nM
GI50 (U251 CNS): 1510 nM
TGI (U251 CNS): 2880 nM
GI50 (K-562 leukemia): 868 nM
TGI (K-562 leukemia): 4870 nM
GI50 (HCC-2998 colon): 1810 nM
TGI (HCC-2998 colon): 3350 nM
GI50 (UO-31 renal): 1280 nM
TGI (UO-31 renal): 2550 nM
GI50 (MOLT-4 leukemia): 1090 nM
TGI (MOLT-4 leukemia): 6490 nM
GI50 (NCI/ADR-RES ovarian): 1810 nM
TGI (NCI/ADR-RES ovarian): 4880 nM
